The source of these data is patent US20240101551A1, “CRYSTAL FORM AND SALT FORM OF BROMINE DOMAIN PROTEIN INHIBITOR AND PREPARATION METHOD THEREFOR” (CHIA TAI TIANQING PHARMACEUTICAL GROUP CO., LTD., priority 2020, published 2024).

What is called IC50 is the concentration that gives 50% inhibition. Low readings indicate greater potency in that assay, high ones weaker potency in that assay. As usually defined, the AUC(0-inf) is the area under the concentration-time curve extrapolated to infinity. By Cmax is commonly meant the peak of the concentration-time curve. By Tmax is commonly meant the time from dosing to the highest level. For orientation: half-life means how long it takes for the measured level to halve. Higher therefore signals slow loss.

Each structure is given as a SMILES string.

Series [1] has as its target BRD4 (BD2) (Homo sapiens (Human), UniProt O60885). The series is described as follows: In vitro enzymatic activity assay on BRD4 (BD2), HTRF. The series is classed as binding. The following applies: GST-BRD4 (BD2, 349-460 aa). Here is the method: In the present application, the IC50 value of the compound of formula (I) in inhibiting BRD4 (BD2) enzyme binding reaction were determined by homogeneous time resolved fluorescence (HTRF). The compound of formula (I) was serially diluted 5-fold with 100% DMSO starting from 1 mM (7 concentrations in total), and then 2 μL of the compound of formula (I) at each concentration was added to 18 μL of a reaction buffer (20 mM HEPES pH 7.5, 150 mM NaCl, 5 mM DTT, 0.005% Tween 20, and 100 μg/mL BSA) for dilution. After being mixed well, 2 μL of the compound of formula (I) at each concentration was added to 48 μL of the above reaction buffer for dilution, and mixed well (final concentration of the compound of formula (I) in DMSO: 0.1%). […] After being incubated in the incubator for another 1 hour, the fluorescence values (excited at 320 nm, emitted light at 665 nm and 620 nm being detected, and the ratio of the two being the enzyme binding signal) were read on Envision (purchased from PerkinElmer). The binding strength of the compound of formula (I) to BRD4 (BD2) protein was determined respectively at 7 concentrations, and the data were calculated using GraphPad Prism software to obtain the IC50 value of the compound of formula (I).
(Time-resolved FRET reads energy transfer from a long-lived donor to a nearby acceptor.)

Series [2] deals with BRD4 (BD1) (Homo sapiens (Human), UniProt O60885). The series is described as follows: In vitro enzymatic activity assay on BRD4 (BD1), HTRF. The series is classed as binding. The following applies: GST-BRD4 (BD1, 44-168 aa). Here is the method:
In the present application, the IC50 value of the compound of formula (I) in inhibiting BRD4 (BD1) enzyme binding reaction were determined by homogeneous time resolved fluorescence (HTRF). The compound of formula (I) was serially diluted 5-fold with 100% DMSO starting from 0.2 mM (7 concentrations in total), and then 2 μL of the compound of formula (I) at each concentration was added to 48 μL of a reaction buffer (20 mM HEPES pH 7.5, 150 mM NaCl, 5 mM DTT, 0.005% Tween 20, and 100 μg/mL BSA) for dilution, and mixed well. 2.5 μL of the resulting mixture was added to a 384-well plate (OptiPlate-384, purchased from PerkinElmer), then 5 μL of GST-BRD4 (BD1, 44-168 aa) (final concentration: 1 nM) was added, and the resulting mixture was centrifuged, and fully mixed. […] After being incubated in the incubator for another 1 hour, the fluorescence values (excited at 320 nm, emitted light at 665 nm and 620 nm being detected, and the ratio of the two being the enzyme binding signal) were read on Envision (purchased from PerkinElmer). The binding strength of the compound of formula (I) to BRD4 (BD1) protein was determined respectively at 7 concentrations, and the data were calculated using GraphPad Prism software to obtain the ICso value of the compound of formula (I).

Series [3] can be described thus: Animal pharmacokinetic study. Type of series: in vivo, rats. Here is the method: Three healthy adult male rats that obtained from Beijing Vital River Laboratory Animal Technology Co., Ltd were used for the animal pharmacokinetic experiment. The compound of formula (I) was suspended in 2% absolute ethanol, 5% tween 80, 20% polyethylene glycol 400, and 73% (5% hydroxypropylmethyl cellulose in water) (V/V/V/V) at a concentration of 1 mg/mL. The administration volume was 5 mL/kg, and animals were treated with a single intragastric administration at a dose of 5 mg/kg Animals were fasted overnight prior to the experiment, and the fasting time was from 10 hours before administration to 4 hours after administration. Blood was sampled at 0.25, 0.5, 1, 2, 4, 6, 8 and 24 hours after administration Animals were lightly anesthetized with isoflurane, and approximately 0.4 mL of whole blood was collected from the orbital venous plexus using a glass blood collection tube, and placed in a heparin anticoagulation tube. The sample was centrifuged at 4200 rpm for 5 minutes at 4° C., and then the plasma was transferred to a centrifuge tube and stored at −80° C. until analyzed. In the plasma sample analysis, test compound and internal standard (warfarin or propranolol) were extracted from rat plasma by acetonitrile protein precipitation, and the extracts were analyzed by LC/MS/MS. The measured plasma concentration-time data of the individual animals were analyzed using a non-compartmental model of WinNonlin (version no. 5.2.1; Pharsight) software to give pharmacokinetic parameters as shown in Table 17 below: the maximum (peak) plasma drug concentration C,max; the time to peak Tmax; the half-life T1/2 and the area under the plasma concentration-time curve extrapolated to infinity AUC0-inf.

The nature of series [4]: Study on stability under influencing factors (high temperature, high humidity, light) of the crystal forms. The series is classed as physicochemical. Here is the method: In order to evaluate the solid stability of the crystal forms of the present application, the stability of each of the crystal form I, the crystal form A, the crystal form D, the crystal form E and the crystal form F under influencing factors (high temperature, high humidity and light) was investigated. Each of the crystal forms was stored under the high temperature condition (60±2° C., open (weighing bottle)), and the high humidity condition (room temperature, 92.5%±5% RH, open (weighing bottle) and packaged) for 5 days, 10 days and 30 days, and under the ICH light condition (5500 Lux, 0.9 w/m^2, closed (weighing bottle) and packaged) for 5 days and 10 days. The inner packaging material of the packaged sample was a medical low-density polyethylene bag, and the outer packaging material is a medical polyester/aluminum/polyethylene composite bag. The samples after the storage were characterized by properties, purity (HPLC), crystal form (XRD) and water content to detect the changes in the crystal form and purity. The results are shown in Tables 8-12 (“^#” indicates the ICH condition).

[5] abbreviates: rat, po, male rats, single intragastric administration, 5 mg/kg, plasma.
Setting [6] is: Light (ICH, 5500 Lux), closed, 5 days.
[7] abbreviates: Light (ICH, 5500 Lux), closed, 10 days.
The mark [8] stands for this setting: 92.5% RH, room temperature, open, 10 days.
The mark [9] stands for this setting: 92.5% RH, room temperature, open, 30 days.

For the molecule `Cn1cc(-c2nc(N=S(C)(C)=O)ccc2Oc2ccc(F)cc2F)c2cc[nH]c2c1=O` [Compound of formula (I), 4-{3-(2,4-difluorophenoxy)-6-{[dimethyl(oxo)-λ^6-sulfaneylidene]amino}-pyridin-2-yl}-6-methyl-1,6-dihydro-7H-pyrrolo[2,3-c]pyridin-7-one], in series [1], half-maximal inhibition (IC50) required 0.25 nM. The same molecule yielded an IC50 in series [2] of 0.64 nM. In series [3] (setting [5]), the AUC(0-inf) stood at 3470 ng·h/mL, the Cmax was 372 ng/mL, the Tmax was determined as 2.67 h and the half-life was 5.25 h. Also, the “Pharmacokinetic properties (conclusion)” value in series [3] (rats, 5 mg/kg intragastric) was “good pharmacokinetic properties”.

With `Cn1cc(-c2nc(N=S(C)(C)=O)ccc2Oc2ccc(F)cc2F)c2cc[nH]c2c1=O` [crystal form A], the Crystal form change result in series [4] (Light (ICH), packaged, 10 days) was “Unchanged”; in series [4] (setting [7]) it was “Unchanged”. In addition, the Impurity content turned out to be 1.32% in series [4] (Light (ICH), packaged, 10 days); 1.32% in series [4] (setting [6]); 1.35% in series [4] (setting [7]); 1.30% in series [4] (starting crystal form). In addition, the Water content in series [4] (Light (ICH), packaged, 10 days) is 6.6%; in series [4] (setting [7]) it was 8.1%; in series [4] (starting crystal form), 5.8%.

Regarding `Cn1cc(-c2nc(N=S(C)(C)=O)ccc2Oc2ccc(F)cc2F)c2cc[nH]c2c1=O` [crystal form D], the Impurity content in series [4] (60° C., open, 5 days) stood at 0.19%; in series [4] (60° C., open, 10 days) it was 0.27%; in series [4] (60° C., open, 30 days) it was 0.44%; in series [4] (92.5% RH, packaged, 30 days), 0.12%; in series [4] (92.5% RH, room temperature, open, 5 days), 0.07%; in series [4] (setting [8]) it was 0.06%. Moreover, the Impurity content in series [4] (setting [9]) was 0.07%; in series [4] (Light (ICH), packaged, 10 days), 0.08%; in series [4] (setting [6]), 0.11%; in series [4] (setting [7]), 0.09%; in series [4] (starting crystal form) it was 0.05%. For the same molecule, the Crystal form change entry is given as “Unchanged” in series [4] (60° C., open, 10 days); “Unchanged” in series [4] (60° C., open, 30 days); “Unchanged” in series [4] (92.5% RH, packaged, 30 days); “Unchanged” in series [4] (setting [8]); “Unchanged” in series [4] (setting [9]); “Unchanged” in series [4] (Light (ICH), packaged, 10 days). The Crystal form change entry in series [4] (setting [7]) is on record as “Unchanged”. For the same molecule, the Water content in series [4] (60° C., open, 10 days) is listed as 1.0%; in series [4] (60° C., open, 30 days), 0.68%; in series [4] (92.5% RH, packaged, 30 days) it was 1.0%; in series [4] (setting [8]), 2.0%; in series [4] (setting [9]), 1.9%; in series [4] (Light (ICH), packaged, 10 days), 1.2%. The Water content in series [4] (setting [7]) is on record as 1.1%; in series [4] (starting crystal form), 1.4%.

Regarding `Cn1cc(-c2nc(N=S(C)(C)=O)ccc2Oc2ccc(F)cc2F)c2cc[nH]c2c1=O` [crystal form E], the Impurity content was 0.20% in series [4] (60° C., open, 5 days); 0.21% in series [4] (60° C., open, 10 days); 0.21% in series [4] (60° C., open, 30 days); 0.18% in series [4] (starting crystal form). Besides, the Crystal form change entry is “Unchanged” in series [4] (60° C., open, 10 days) and “Unchanged” in series [4] (60° C., open, 30 days).

Turning to `Cn1cc(-c2nc(N=S(C)(C)=O)ccc2Oc2ccc(F)cc2F)c2cc[nH]c2c1=O` [crystal form F], the Impurity content was 0.18% in series [4] (60° C., open, 5 days); 0.20% in series [4] (60° C., open, 10 days); 0.22% in series [4] (60° C., open, 30 days); 0.17% in series [4] (starting crystal form). Moreover, the Crystal form change entry in series [4] (60° C., open, 10 days) is “Unchanged”; in series [4] (60° C., open, 30 days), “Unchanged”.
